Assays:
[1] = target: Cyclin-dependent kinase 5/CDK5 activator 1 (Homo sapiens) (UniProt Q00535+Q15078); assay: Residual activity of CDK5/p25NCK at 1 uM by microplate scintillation counting; type: protein-complex assay
[2] = target: Tyrosine-protein kinase Fes/Fps (Homo sapiens) (UniProt P07332); assay: Residual activity of FES at 1 uM by microplate scintillation counting
[3] = target: Protein kinase C beta type (Homo sapiens) (UniProt P05771); assay: Residual activity of PKCbeta1 at 1 uM by microplate scintillation counting
[4] = target: Misshapen-like kinase 1 (Homo sapiens) (UniProt Q8N4C8); assay: Residual activity of MINK1 at 0.1 uM by microplate scintillation counting
[5] = target: T1, Serine/threonine-protein kinase Nek11 (Homo sapiens) (UniProt Q8NG66); assay: Residual activity of NEK11 at 1 uM by microplate scintillation counting
T1 sequence (whole entry): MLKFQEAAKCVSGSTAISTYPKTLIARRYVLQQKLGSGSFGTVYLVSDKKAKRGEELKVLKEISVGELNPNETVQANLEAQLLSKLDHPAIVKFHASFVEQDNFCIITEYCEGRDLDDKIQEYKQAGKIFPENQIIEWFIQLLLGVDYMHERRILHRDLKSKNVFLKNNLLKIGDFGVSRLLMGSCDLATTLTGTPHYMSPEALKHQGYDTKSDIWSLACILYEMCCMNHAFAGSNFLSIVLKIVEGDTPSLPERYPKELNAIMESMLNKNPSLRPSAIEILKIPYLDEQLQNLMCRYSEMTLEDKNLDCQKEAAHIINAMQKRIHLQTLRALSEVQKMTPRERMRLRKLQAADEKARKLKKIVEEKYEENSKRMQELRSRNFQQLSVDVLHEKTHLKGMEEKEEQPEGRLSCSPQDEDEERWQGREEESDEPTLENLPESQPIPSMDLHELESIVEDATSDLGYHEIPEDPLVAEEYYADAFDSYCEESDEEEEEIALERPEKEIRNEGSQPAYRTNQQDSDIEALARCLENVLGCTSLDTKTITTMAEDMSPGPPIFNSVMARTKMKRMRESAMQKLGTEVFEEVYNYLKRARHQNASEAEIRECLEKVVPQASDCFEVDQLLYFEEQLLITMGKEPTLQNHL

[6] = target: Serine/threonine-protein kinase PAK 3 (Homo sapiens) (UniProt O75914); assay: Residual activity of PAK3 at 1 uM by microplate scintillation counting
[7] = target: Macrophage-stimulating protein receptor (Homo sapiens) (UniProt Q04912); assay: Residual activity of RON at 1 uM by microplate scintillation counting
[8] = target: T2, Serine/threonine-protein kinase Sgk3 (Homo sapiens) (UniProt Q96BR1); assay: Residual activity of SGK3 at 1 uM by microplate scintillation counting
T2 sequence (whole entry): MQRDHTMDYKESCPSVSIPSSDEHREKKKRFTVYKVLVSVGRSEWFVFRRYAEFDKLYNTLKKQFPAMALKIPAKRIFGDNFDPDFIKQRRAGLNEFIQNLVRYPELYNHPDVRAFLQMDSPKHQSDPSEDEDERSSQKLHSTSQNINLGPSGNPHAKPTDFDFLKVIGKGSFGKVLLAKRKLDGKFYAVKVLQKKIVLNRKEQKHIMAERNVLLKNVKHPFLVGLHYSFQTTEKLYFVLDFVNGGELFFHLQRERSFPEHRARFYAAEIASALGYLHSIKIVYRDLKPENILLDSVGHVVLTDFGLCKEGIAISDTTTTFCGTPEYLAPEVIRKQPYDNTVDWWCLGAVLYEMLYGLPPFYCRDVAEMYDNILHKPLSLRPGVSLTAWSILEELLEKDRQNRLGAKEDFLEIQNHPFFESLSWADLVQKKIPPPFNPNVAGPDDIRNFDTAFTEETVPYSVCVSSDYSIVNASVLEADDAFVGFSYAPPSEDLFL

[9] = target: Tyrosine-protein kinase ABL2 (Homo sapiens) (UniProt P42684); assay: Residual activity of ABL2 at 1 uM by microplate scintillation counting
[10] = target: RAC-gamma serine/threonine-protein kinase (Homo sapiens) (UniProt Q9Y243); assay: Residual activity of AKT3 at 1 uM by microplate scintillation counting
[11] = target: CDK6/cyclin D1 (Homo sapiens) (UniProt P24385+Q00534); assay: Residual activity of CDK6/Cyclin D1 at 10 uM by microplate scintillation counting; type: protein-complex assay
[12] = target: T3, Mitogen-activated protein kinase 12 (Homo sapiens) (UniProt P53778); assay: Residual activity of p38-gamma at 10 uM by microplate scintillation counting
T3 sequence (whole entry): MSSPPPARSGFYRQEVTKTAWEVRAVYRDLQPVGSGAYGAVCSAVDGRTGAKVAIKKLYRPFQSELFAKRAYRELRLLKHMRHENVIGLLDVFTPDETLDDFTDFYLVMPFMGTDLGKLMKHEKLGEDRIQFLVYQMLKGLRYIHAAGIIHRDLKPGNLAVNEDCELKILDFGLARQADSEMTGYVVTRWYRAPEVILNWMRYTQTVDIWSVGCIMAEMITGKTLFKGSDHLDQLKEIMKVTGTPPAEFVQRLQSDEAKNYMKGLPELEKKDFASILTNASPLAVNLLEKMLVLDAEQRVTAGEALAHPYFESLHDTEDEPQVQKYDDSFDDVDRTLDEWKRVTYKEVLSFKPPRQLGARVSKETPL

[13] = target: Protein kinase C delta type (Homo sapiens) (UniProt Q05655); assay: Residual activity of PKCdelta at 10 uM by microplate scintillation counting
[14] = target: T4, CDK3/cyclin E (Homo sapiens) (UniProt P24864+O96020+Q00526); assay: Residual activity of CDK3/Cyclin E at 1 uM by microplate scintillation counting; type: protein-complex assay
[15] = target: Tyrosine-protein kinase receptor UFO (Homo sapiens) (UniProt P30530); assay: Residual activity of AXL at 0.1 uM by microplate scintillation counting
[16] = target: Cyclin-dependent kinase 1/cyclin B1 (Homo sapiens) (UniProt P06493+P14635); assay: Residual activity of CDK1/CyclinB1 at 0.1 uM by microplate scintillation counting; type: protein-complex assay
[17] = target: T4, CDK3/cyclin E (Homo sapiens); assay: Residual activity of CDK3/Cyclin E at 0.1 uM by microplate scintillation counting; type: protein-complex assay
[18] = target: Casein kinase I isoform delta (Homo sapiens) (UniProt P48730); assay: Residual activity of CK1delta at 0.1 uM by microplate scintillation counting
[19] = target: Serine/threonine-protein kinase Nek7 (Homo sapiens) (UniProt Q8TDX7); assay: Residual activity of NEK7 at 0.1 uM by microplate scintillation counting
[20] = target: Protein-tyrosine kinase 2-beta (Homo sapiens) (UniProt Q14289); assay: Residual activity of PYK2 at 10 uM by microplate scintillation counting
[21] = target: Tyrosine-protein kinase Yes (Homo sapiens) (UniProt P07947); assay: Residual activity of YES at 10 uM by microplate scintillation counting
Sequence of Tyrosine-protein kinase Yes (Homo sapiens) (P07947 2-543 limits assumed): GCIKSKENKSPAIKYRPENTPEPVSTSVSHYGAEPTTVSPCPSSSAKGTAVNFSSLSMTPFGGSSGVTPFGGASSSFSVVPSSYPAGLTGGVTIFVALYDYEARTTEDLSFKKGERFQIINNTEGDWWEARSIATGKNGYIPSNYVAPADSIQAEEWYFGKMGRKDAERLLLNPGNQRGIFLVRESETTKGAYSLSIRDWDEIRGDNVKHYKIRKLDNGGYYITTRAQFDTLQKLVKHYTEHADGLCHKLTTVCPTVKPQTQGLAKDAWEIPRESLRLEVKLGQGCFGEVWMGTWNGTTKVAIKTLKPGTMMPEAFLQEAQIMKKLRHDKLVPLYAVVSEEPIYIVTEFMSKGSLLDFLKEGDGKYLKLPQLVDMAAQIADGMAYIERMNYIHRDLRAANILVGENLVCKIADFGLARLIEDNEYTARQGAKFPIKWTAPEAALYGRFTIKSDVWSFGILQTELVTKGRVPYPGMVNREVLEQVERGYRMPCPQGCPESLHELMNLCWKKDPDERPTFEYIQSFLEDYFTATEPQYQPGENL

Sequence of Macrophage-stimulating protein receptor (Homo sapiens) (Q04912 25-304 limits assumed): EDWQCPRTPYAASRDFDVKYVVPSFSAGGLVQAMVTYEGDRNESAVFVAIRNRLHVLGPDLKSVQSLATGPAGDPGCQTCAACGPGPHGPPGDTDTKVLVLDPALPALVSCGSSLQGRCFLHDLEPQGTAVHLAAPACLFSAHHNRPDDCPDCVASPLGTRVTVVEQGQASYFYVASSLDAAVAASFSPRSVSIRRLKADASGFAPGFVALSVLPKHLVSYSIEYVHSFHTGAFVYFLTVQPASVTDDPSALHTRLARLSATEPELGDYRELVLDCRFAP
Sequence of Macrophage-stimulating protein receptor (Homo sapiens) (Q04912 310-1400 limits assumed): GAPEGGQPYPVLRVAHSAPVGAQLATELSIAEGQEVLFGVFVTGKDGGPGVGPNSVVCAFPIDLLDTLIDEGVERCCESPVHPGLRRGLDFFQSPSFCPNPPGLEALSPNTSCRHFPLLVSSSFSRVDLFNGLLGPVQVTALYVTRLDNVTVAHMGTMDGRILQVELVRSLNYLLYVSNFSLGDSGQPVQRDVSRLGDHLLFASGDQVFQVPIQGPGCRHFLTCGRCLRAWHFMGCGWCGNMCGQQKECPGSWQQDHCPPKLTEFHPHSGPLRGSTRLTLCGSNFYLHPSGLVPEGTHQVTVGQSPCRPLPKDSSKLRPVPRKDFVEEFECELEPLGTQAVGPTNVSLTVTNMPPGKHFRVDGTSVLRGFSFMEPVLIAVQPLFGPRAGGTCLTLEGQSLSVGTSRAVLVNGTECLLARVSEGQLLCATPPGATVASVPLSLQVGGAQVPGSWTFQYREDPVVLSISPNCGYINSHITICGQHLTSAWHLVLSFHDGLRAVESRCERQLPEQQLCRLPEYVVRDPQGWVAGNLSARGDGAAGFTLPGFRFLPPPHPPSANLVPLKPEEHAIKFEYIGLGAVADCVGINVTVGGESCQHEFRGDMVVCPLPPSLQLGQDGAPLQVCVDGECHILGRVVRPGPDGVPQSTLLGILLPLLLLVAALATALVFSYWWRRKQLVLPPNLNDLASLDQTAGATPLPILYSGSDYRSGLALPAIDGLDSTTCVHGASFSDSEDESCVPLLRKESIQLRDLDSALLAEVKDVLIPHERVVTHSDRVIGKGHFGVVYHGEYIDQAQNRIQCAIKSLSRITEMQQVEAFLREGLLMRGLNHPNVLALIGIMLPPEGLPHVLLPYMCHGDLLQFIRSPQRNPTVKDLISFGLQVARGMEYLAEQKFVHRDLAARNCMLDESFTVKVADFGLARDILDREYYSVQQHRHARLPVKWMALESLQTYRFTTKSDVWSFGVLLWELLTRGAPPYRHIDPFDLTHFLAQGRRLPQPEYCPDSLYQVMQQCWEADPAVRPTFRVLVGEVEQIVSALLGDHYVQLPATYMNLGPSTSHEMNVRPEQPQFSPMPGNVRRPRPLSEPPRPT
Sequence of Tyrosine-protein kinase ABL2 (Homo sapiens) (P42684 whole entry): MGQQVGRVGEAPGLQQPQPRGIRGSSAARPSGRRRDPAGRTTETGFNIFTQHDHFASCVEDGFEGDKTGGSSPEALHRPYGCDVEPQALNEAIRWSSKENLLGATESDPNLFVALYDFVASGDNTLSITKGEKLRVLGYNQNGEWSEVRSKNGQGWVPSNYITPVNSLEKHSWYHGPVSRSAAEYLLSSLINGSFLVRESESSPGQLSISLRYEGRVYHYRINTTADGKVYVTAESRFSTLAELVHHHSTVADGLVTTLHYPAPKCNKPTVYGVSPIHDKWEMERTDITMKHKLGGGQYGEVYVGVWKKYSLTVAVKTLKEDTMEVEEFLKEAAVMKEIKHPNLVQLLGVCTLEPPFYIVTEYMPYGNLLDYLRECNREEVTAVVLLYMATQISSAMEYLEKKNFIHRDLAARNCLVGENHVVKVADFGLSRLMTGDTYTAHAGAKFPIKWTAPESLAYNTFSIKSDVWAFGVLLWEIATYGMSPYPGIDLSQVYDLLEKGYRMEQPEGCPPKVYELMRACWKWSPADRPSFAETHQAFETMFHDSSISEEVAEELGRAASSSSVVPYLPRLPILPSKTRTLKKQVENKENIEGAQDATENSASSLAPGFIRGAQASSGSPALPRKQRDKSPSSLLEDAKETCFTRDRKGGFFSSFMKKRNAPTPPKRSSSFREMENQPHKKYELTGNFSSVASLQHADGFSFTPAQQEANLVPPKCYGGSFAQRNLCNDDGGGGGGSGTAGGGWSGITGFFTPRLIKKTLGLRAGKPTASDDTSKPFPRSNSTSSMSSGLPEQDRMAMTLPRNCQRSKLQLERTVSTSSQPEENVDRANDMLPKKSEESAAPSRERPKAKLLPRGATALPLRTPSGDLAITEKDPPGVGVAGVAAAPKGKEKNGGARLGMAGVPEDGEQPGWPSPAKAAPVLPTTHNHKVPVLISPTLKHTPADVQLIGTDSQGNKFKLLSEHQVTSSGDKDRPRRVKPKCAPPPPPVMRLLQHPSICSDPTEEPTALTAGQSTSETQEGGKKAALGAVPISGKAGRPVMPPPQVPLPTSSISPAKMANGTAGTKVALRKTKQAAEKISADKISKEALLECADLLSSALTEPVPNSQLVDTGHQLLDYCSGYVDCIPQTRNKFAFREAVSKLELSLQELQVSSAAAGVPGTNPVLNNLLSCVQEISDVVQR
Sequence of Casein kinase I isoform delta (Homo sapiens) (P48730 whole entry, looked up, canonical isoform): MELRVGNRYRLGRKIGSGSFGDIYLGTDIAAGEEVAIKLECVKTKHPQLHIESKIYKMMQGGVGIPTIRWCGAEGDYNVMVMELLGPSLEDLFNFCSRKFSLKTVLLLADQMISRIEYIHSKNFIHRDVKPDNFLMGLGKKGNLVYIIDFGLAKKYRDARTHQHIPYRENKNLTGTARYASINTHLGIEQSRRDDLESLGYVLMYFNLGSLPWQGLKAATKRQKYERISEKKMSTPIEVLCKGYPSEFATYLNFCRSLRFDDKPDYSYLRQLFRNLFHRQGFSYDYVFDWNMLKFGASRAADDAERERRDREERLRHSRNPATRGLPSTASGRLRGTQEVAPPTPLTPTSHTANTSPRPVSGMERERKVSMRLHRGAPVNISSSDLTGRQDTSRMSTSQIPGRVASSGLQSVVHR
Sequence of Cyclin-dependent kinase 5/CDK5 activator 1 (Homo sapiens) (Q00535 whole entry): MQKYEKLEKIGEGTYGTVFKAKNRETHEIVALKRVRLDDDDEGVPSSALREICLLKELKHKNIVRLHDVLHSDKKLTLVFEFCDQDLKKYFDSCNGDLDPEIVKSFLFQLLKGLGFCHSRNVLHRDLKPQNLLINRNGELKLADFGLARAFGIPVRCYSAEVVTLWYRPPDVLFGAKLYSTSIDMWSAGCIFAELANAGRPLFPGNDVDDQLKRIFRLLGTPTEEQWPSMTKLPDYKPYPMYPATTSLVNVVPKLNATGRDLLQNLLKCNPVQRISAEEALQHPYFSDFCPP
Sequence of Cyclin-dependent kinase 5/CDK5 activator 1 (Homo sapiens) (Q15078 99-307 partner limits assumed): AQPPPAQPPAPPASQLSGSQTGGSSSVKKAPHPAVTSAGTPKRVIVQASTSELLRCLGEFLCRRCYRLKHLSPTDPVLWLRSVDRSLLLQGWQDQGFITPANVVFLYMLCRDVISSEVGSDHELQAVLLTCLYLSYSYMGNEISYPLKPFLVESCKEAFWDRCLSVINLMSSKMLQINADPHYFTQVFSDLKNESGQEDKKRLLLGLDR
Sequence of Protein kinase C beta type (Homo sapiens) (P05771 2-671 limits assumed): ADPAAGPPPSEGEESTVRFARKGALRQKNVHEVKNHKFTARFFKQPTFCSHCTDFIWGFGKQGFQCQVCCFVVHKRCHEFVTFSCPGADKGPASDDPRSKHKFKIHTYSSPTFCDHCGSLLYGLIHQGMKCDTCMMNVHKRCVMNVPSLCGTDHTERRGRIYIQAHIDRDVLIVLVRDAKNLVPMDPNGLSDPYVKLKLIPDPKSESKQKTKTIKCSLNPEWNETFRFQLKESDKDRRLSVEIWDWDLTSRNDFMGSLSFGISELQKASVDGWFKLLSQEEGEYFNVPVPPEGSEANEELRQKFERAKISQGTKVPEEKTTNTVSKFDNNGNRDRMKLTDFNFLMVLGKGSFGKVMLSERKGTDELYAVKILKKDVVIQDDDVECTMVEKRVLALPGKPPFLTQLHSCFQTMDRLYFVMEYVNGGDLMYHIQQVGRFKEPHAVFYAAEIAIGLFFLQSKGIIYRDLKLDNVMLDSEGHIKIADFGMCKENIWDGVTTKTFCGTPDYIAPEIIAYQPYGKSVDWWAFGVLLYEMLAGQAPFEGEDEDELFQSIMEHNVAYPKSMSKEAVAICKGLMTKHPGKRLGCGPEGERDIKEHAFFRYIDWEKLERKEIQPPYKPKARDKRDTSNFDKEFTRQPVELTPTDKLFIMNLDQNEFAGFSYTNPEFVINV
Sequence of Serine/threonine-protein kinase Nek7 (Homo sapiens) (Q8TDX7 whole entry, looked up): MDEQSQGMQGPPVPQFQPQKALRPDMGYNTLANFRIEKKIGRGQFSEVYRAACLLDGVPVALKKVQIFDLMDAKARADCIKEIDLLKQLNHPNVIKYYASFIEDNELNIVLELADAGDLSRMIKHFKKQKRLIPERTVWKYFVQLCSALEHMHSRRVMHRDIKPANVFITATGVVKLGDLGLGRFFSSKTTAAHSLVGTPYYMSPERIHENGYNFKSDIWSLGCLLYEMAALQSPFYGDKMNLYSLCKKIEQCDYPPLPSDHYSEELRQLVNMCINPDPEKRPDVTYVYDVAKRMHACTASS

residual activity [1] [%] | residual activity [2] [%] | residual activity [3] [%] | residual activity [4] [%] | residual activity [5] [%] | residual activity [6] [%] | residual activity [7] [%] | residual activity [8] [%] | residual activity [9] [%] | residual activity [10] [%] | residual activity [11] [%] | residual activity [12] [%] | residual activity [13] [%] | residual activity [14] [%] | residual activity [15] [%] | residual activity [16] [%] | residual activity [17] [%] | residual activity [18] [%] | residual activity [19] [%] | residual activity [20] [%] | Compound | also measured
87 | 123 | 105 | 101 | 91 | 101 | 60 | 110 | 98 | 98 | 140 | 292 | 72 | 89 | 96 | 84 | 90 | 95 | 95 | 113 | COc1cc2c(Oc3ccc(-c4nc5ccccc5s4)cc3)ncnc2cc1OCCCN1CCCC1 | residual activity [21]: 101%
82 | 105 | 108 | 77 | 104 | 85 | 48 | 91 | 99 | 88 | 193 | 136 | 86 | 85 | 117 | 90 | 86 | 94 | 83 | 95 | COc1cc2c(Oc3ccc(-c4nc5ccccc5s4)cc3)ncnc2cc1OCCCN1CCN(C)CC1 | residual activity [21]: 55%
89 | 112 | 103 | 77 | 93 | 95 | 35 | 94 | 87 | 89 | 167 | 207 | 86 | 79 | 104 | 87 | 98 | 98 | 97 | 54 | COc1cc2c(Oc3ccc(-c4nc5ccccc5s4)cc3F)ncnc2cc1OCCCN1CCN(C)CC1 | residual activity [21]: 14%

Source: ChEMBL document CHEMBL1152560, “Substituted 2-arylbenzothiazoles as kinase inhibitors: hit-to-lead optimization” (Bioorg Med Chem, 2009)
